From patent US8067424B2, “Selective inhibitors for cyclin-dependent kinases” (Emory University, priority 2007, dated 2011)
Read-outs that look alike come from different tables or passages of the source.

Legend:
Format in all cases: biochemical
Src = Src (Homo sapiens, UniProt P12931); test: Kinase screen: Src assay
Method: (§1) Generally, the same procedure was used for all assays. Since the total assay volume was 25.5 microliters, 0.5 microliters of inhibitors at 51× assay concentration were added to the plates before any other addition.
(§2) The basic procedure was to add 0.5 microliters inhibitor/control in DMSO to plate. Fifteen microliters of enzyme/substrate/buffer mix were added and incubated for 5 min. Ten microliters MgATP at the relevant concentration were added and incubated for 30 min. The assay was stopped by adding 5 microliters of 3% orthophosphoric acid. The assay was transferred to a p81 filter plate and read in a scintillation counter of 30 sec/well. Note that this assay procedure was not followed for MKK1, which instead involved a two-step assay, and PKC alpha, which required the addition of lipid vesicles.
(50-1000 cpm/pmole) and incubated for 30 min at room temperature. Assays were stopped by addition of 5 μl of 0.5 M (3%) orthophosphoric acid and then harvested onto P81 Unifilter plates with a wash buffer of 50 mM orthophosphoric acid.

EFK2 = EFK2 (Homo sapiens, UniProt O00418); test: Kinase screen: EF2K assay
Method: as §1, §2
EF2K assay: EF2K (5-20 mU diluted in 50 mM Hepes pH 6.6, 0.1% b-mercaptoethanol, 1 mg/ml BSA) was assayed against a substrate peptide ([…]) (SEQ ID NO: 27) in a final volume of 25.5 μl containing 50 mM Hepes pH 6.6, 0.2 mM CaCl2, 0.3 μM Calmodulin, 0.05% b-mercaptoethanol, 300 μM substrate peptide, 10 mM magnesium acetate and 0.005 mM [33P-g-ATP] (50-1000 cpm/pmole) and incubated for 30 min at room temperature. Assays were stopped by addition of 5 μl of 0.5 M (3%) orthophosphoric acid and then harvested onto P81 Unifilter plates with a wash buffer of 50 mM orthophosphoric acid.

MARK3 = MARK3 (Homo sapiens, UniProt P27448); test: Kinase screen: MARK3 assay
Method: as §1, §2
MARK3 assay: MARK3 (5-20 mU diluted in 50 mM Tris pH 7.5, 0.1 mM EGTA, 0.1% b-mercaptoethanol, 1 mg/ml BSA) was assayed against CHKtide substrate ([…]) (SEQ ID NO: 12) in a final volume of 25.5 μl containing 50 mM Tris pH 7.5, 0.05% b-mercaptoethanol, 300 μM substrate peptide, 10 mM magnesium acetate and 0.005 mM [33P-g-ATP] (50-1000 cpm/pmole) and incubated for 30 min at room temperature. Assays were stopped by addition of 5 μl of 0.5 M (3%) orthophosphoric acid and then harvested onto P81 Unifilter plates with a wash buffer of 50 mM orthophosphoric acid.

MNK2 = MNK2 (Homo sapiens, UniProt Q9HBH9); test: Kinase screen: MNK2 alpha assay
Method: as §1, §2
MNK2 alpha assay: 5-20 mU of MNK2 (diluted in 50 mM Tris (pH 7.5), 0.1 mM EGTA, 1 mg/ml BSA, 0.1%, b-Mercaptoethanol) was assayed against substrate peptide (eIF4E) in a final volume of 25.5 μl containing 50 mM Tris (pH 7.5), 0.1 mM EGTA, 0.1%, b-Mercaptoethanol, 0.5 mg/ml substrate peptide, 10 mM magnesium acetate and 0.05 mM [33P-g-ATP](500-1000 cpm/pmole) and incubated for 30 mins at room temperature. Assays were stopped by addition of 5 μl of 0.5M (3%) orthophosphoric acid. Assays were harvested onto P81 Unifilter plates using a wash buffer of 50 mM orthophosphoric acid.

CAMK1 = CAMK1 (Homo sapiens, UniProt Q14012); test: Kinase screen: CAMK-1 assay
Method: as §1, §2
CAMK-1 assay: 5-20 mU of CAMK-1 (diluted in 50 mM Tris (pH 7.5), 0.1 mM EGTA, 1 mg/ml BSA, 0.1%, b-Mercaptoethanol) was assayed against substrate peptide ([…]) (SEQ ID NO: 22) in a final volume of 25.5 μl containing 50 mM Tris (pH 7.5), 0.1 mM EGTA, 0.5 mM CaCl2, 0.3 μM calmodulin, 0.1%, b-Mercaptoethanol, 300 μM substrate peptide, 10 mM magnesium acetate and 0.05 mM [33P-g-ATP] (500-1000 cpm/pmole) and incubated for 30 mins at room temperature. Assays were stopped by addition of 5 μl of 0.5M (3%) orthophosphoric acid. Assays were harvested onto P81 Unifilter plates using a wash buffer of 50 mM orthophosphoric acid.

YES1 = YES1 (Homo sapiens, UniProt P07947); test: Kinase screen: YES1 assay; conditions: 10 micromolar compound; for remaining activity at 10 µM: read-out: mean activity remaining (as a percentage of the original activity), YES1
Method: as §1, §2
(§3) YES1 assay: YES1 (5-20 mU diluted in 50 mM Tris pH 7.5, 0.1 mM EGTA, 1 mg/ml BSA) was assayed against a substrate peptide (Poly Glut Tyr) in a final volume of 25.5 μl containing 50 mM Tris pH 7.5, 1 mg/ml substrate peptide, 10 mM magnesium acetate and 0.02 mM [33P-g-ATP] (50-1000 cpm/pmole) and incubated for 30 min at room temperature. Assays were stopped by addition of 5 μl of 0.5 M (3%) orthophosphoric acid and then harvested onto P81 Unifilter plates with a wash buffer of 50 mM orthophosphoric acid.

EPH-A2 = EPH-A2 (Homo sapiens, UniProt P29317); test: Kinase screen: EPH-A2 assay; conditions: 10 micromolar compound; for remaining activity at 10 µM: read-out: mean activity remaining (as a percentage of the original activity), EPH A2
Method: as §1, §2
as §3, with “EPH-A2 assay: EPH-A2” for “YES1 assay: YES1”, “EPH-A2 assay: EPH-A2 (5-20 mU” for “YES1 assay: YES1 (5-20 mU”, “pH 7.5, 0.1 mg/ml substrate” for “pH 7.5, 1 mg/ml substrate”, “acetate and 0.05 mM [33P-g-ATP]” for “acetate and 0.02 mM [33P-g-ATP]”

[1] = 10 micromolar compound, read-out: mean activity remaining (as a percentage of the original activity), Src
[2] = 10 micromolar compound, read-out: mean activity remaining (as a percentage of the original activity), EFK2
[3] = 10 micromolar compound, read-out: mean activity remaining (as a percentage of the original activity), MARK 3
[4] = 10 micromolar compound, read-out: mean activity remaining (as a percentage of the original activity), MNK2
[5] = 10 micromolar compound, read-out: mean activity remaining (as a percentage of the original activity), CAMK 1

Chain of YES1 (P07947 whole entry, species assumed): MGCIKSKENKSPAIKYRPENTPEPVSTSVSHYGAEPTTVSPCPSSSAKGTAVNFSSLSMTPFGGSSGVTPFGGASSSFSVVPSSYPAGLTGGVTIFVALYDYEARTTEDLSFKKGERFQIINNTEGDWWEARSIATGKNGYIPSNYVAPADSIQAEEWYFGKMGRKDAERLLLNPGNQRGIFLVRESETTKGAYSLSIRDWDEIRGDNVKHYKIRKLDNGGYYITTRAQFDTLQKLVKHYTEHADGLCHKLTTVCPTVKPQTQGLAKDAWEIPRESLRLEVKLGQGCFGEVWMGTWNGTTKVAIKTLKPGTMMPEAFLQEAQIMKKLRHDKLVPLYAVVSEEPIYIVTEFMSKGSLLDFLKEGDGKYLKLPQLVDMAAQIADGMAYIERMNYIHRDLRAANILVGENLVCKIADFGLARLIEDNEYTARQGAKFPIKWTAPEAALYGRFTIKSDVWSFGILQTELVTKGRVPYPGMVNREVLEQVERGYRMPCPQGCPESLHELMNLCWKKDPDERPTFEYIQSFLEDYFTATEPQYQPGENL
Chain of Src (P12931 whole entry, species assumed): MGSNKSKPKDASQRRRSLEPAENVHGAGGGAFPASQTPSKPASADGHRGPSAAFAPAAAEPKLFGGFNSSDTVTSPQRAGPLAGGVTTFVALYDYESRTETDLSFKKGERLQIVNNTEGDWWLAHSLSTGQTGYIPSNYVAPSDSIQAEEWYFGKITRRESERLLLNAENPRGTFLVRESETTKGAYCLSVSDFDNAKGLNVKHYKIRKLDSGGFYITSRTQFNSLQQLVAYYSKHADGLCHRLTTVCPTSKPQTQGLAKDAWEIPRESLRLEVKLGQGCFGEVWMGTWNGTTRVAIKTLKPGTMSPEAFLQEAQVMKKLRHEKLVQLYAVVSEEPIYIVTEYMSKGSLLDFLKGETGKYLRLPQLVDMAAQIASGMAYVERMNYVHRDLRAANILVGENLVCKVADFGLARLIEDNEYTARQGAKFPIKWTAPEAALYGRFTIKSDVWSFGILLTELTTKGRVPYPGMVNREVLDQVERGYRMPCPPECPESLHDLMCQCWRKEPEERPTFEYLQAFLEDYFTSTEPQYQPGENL
Chain of EPH-A2 (P29317 24-976, species assumed): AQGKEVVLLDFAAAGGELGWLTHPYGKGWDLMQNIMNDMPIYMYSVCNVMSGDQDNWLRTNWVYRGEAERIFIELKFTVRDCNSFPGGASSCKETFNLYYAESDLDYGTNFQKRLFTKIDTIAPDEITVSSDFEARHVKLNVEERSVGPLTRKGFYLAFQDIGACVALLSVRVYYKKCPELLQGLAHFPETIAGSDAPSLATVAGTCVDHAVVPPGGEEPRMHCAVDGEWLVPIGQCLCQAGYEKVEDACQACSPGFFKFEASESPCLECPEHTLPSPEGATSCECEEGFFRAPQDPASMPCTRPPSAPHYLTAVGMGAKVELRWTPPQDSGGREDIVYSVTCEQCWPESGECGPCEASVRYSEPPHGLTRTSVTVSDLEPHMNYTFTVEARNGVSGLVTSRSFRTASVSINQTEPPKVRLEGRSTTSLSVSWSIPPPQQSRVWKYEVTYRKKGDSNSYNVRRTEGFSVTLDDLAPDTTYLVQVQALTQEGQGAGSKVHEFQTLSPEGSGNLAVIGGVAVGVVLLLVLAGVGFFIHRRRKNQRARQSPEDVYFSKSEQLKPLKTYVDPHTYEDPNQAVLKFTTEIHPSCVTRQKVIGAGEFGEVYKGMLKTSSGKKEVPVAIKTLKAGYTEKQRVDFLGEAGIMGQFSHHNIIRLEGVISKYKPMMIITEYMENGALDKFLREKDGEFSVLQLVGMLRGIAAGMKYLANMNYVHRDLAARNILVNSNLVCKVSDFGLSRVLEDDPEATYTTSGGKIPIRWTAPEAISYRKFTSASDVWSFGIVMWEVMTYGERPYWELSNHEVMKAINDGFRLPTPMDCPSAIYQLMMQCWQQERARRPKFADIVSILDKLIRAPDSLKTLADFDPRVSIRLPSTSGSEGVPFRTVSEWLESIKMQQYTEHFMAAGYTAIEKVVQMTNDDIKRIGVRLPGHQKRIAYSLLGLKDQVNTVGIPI
Chain of MARK3 (P27448 whole entry, species assumed): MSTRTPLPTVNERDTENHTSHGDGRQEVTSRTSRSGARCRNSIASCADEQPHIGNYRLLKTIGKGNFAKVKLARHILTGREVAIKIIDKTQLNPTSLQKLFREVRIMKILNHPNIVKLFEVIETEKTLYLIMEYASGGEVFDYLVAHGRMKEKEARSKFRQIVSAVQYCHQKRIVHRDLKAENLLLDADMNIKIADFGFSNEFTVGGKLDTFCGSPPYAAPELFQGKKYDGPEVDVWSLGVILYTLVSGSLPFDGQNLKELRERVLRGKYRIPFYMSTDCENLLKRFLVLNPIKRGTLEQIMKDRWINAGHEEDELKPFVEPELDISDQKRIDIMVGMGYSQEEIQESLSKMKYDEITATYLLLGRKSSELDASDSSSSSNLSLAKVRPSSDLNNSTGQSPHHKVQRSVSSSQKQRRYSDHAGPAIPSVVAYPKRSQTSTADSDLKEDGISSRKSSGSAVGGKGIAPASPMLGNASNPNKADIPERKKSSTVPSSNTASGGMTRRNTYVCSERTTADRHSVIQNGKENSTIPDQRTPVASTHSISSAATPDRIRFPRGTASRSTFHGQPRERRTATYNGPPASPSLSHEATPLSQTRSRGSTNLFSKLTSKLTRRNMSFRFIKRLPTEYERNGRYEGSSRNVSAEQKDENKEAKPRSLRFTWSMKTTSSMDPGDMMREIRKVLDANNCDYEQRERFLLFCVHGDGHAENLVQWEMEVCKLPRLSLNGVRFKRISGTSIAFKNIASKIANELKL
Chain of MNK2 (Q9HBH9 whole entry, species assumed): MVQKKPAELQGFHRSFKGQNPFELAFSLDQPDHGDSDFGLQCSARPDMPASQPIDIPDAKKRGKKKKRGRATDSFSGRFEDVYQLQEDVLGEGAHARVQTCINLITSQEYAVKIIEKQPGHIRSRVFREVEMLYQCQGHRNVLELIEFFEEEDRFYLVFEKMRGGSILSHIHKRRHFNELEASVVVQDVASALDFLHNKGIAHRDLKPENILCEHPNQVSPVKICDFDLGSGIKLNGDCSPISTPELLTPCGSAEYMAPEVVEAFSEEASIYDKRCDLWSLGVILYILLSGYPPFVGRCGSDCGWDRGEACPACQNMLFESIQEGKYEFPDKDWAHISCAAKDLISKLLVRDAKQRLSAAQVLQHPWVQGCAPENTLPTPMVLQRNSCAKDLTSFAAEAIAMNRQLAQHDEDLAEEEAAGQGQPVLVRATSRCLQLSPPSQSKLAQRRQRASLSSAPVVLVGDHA

CC(C)c1cnn2c(NCc3ccccc3F)cc(NCCCCCN)nc12 [ICEC-0232]
mean activity remaining (as a percentage of the original activity), Src (Src; 10 micromolar compound): 96%
mean activity remaining (as a percentage of the original activity), EFK2 (EFK2; 10 micromolar compound): 98%
mean activity remaining (as a percentage of the original activity), MARK 3 (MARK3; 10 micromolar compound): 96%
mean activity remaining (as a percentage of the original activity), MNK2 (MNK2; 10 micromolar compound): 88%
mean activity remaining (as a percentage of the original activity), CAMK 1 (CAMK1; 10 micromolar compound): 29%
mean activity remaining (as a percentage of the original activity), YES1 (YES1): 106%
mean activity remaining (as a percentage of the original activity), EPH A2 (EPH-A2): 92%

CC(C)c1cnn2c(NCc3ccccc3)cc(NCCCCCCCN)nc12 [BS-181]
remaining activity at 10 µM (Src; Src, 10 μM, read-out: Mean Remaining Enzyme Activity (%)): 88%
remaining activity at 10 µM (EFK2; EFK2, 10 μM, read-out: Mean Remaining Enzyme Activity (%)): 119%
remaining activity at 10 µM (MARK3; MARK3, 10 μM, read-out: Mean Remaining Enzyme Activity (%)): 104%
remaining activity at 10 µM (MNK2; MNK2, 10 μM, read-out: Mean Remaining Enzyme Activity (%)): 105%
remaining activity at 10 µM (CAMK1; CAMK1, 10 μM, read-out: Mean Remaining Enzyme Activity (%)): 48%

CC[C@H](CO)Nc1cc(NCc2ccccc2)n2ncc(C(C)C)c2n1 [ICEC0067]
remaining activity at 10 µM (Src; [1]): 90%
remaining activity at 10 µM (EFK2; [2]): 95%
remaining activity at 10 µM (MARK3; [3]): 89%
remaining activity at 10 µM (MNK2; [4]): 84%
remaining activity at 10 µM (CAMK1; [5]): 84%
remaining activity at 10 µM (YES1): 87%
remaining activity at 10 µM (EPH-A2): 101%

C=C[C@H](CO)Nc1cc(NCc2ccccc2)n2ncc(C(C)C)c2n1 [ICEC0065]
remaining activity at 10 µM (Src; [1]): 112%
remaining activity at 10 µM (EFK2; [2]): 97%
remaining activity at 10 µM (MARK3; [3]): 93%
remaining activity at 10 µM (MNK2; [4]): 83%
remaining activity at 10 µM (CAMK1; [5]): 89%
remaining activity at 10 µM (YES1): 90%
remaining activity at 10 µM (EPH-A2): 109%

CC(C)c1cnn2c(NCc3ccccc3)cc(N[C@@H](CO)[C@H](O)CO)nc12 [ICEC0318, (3S)-3-(7-(Benzylamino)-3-isopropylpyrazolo[1,5-a]pyrimidin-5-ylamino)butane-1,2,4-triol]
remaining activity at 10 µM (Src; [1]): 95%
remaining activity at 10 µM (EFK2; [2]): 92%
remaining activity at 10 µM (MARK3; [3]): 82%
remaining activity at 10 µM (MNK2; [4]): 136%
remaining activity at 10 µM (CAMK1; [5]): 93%
remaining activity at 10 µM (YES1): 89%
remaining activity at 10 µM (EPH-A2): 116%
